Tests used:
C57BL/6 mice [1] = assay: S1P1-positive T-cell population in vivo, FACS; design: species or system mouse; conditions: for increase of S1P1-positive T cells in the blood, of normal expression levels / increase of S1P1 population, spleen T cells / decrease of S1P1 population in the lymph nodes: 2-day treatment
Excerpt: (§1) The S1P gradient is a crucial factor for lymphocytes to egress from lymphoid tissues and re-enter the circulation. […] To identify whether the effect of AD2900 on T-cell localization may be mediated by an influence on S1P1 and CCR7 expression, we tested the percentage of S1P1- and CCR7-positive T-cell populations in the blood, spleen, and lymph node in each mouse after a 2-day treatment with AD2900. The percentage of cells expressing S1P1 or CCR7 on their cell surface was detected by FACS analysis and was calculated as % of expressing population in non-treated animals. […] AD2900 elevates the S1P1-expressing population in the blood and spleen, whereas it reduces this population in the lymph nodes. […] In the lymph nodes, the […] population was not affected by AD2900 treatment (Figure 7F).
(§2) Figure 7 The influence of AD2900 on S1P1- and CCR7-positive T-cell populations in blood, spleen, and peripheral lymph nodes C57BL/6 mice were orally administered with 1.8, 2.7, and 3.6 mg/l AD2900 or 1.8 mg/l FTY720 for 2 days, as shown in Figure 4. Leukocytes from blood, spleen, and pLNs were collected and stained with CD3e and S1P1 or CCR7 fluorescent antibodies and then analyzed by FACS analysis. The percentages of S1P1+ CD3e+ T cells from blood (A), spleen (B), and pLNs (C) are shown. The percentages of CCR7+ CD3e+ T cells from blood (D), spleen (E), and pLNs (F) are shown. All the significances are compared to untreated healthy mice. Results summarize at least three independent experiments. Results of Student’s t-test:*(P < 0.05, two-tailed test), ** (P < 0.01, two-tailed test), *** (P < 0.001, two-tailed test), **** (P < 0.0001, two-tailed test).
(§3) C57BL/6 female mice aged 7–8 weeks were obtained from Harlan Laboratories (Jerusalem, Israel). The animal study was conducted under appropriate conditions and was approved by the Institutional Animal Care and Use Committee of the Hebrew University of Jerusalem in accordance with the national laws and regulations for the protection of animals. AD2900 was dissolved in 10% BSA (MP Biomedicals, CA, USA) in DDW at 1 mg/ml and then further diluted in 200 ml water to get final concentrations at 1.8, 2.7, or 3.6 mg/l. AD2900 and FTY720 were supplied ad libitum to the mice for 2 days or 7 days. At the end of the experiment, blood was collected, and the mice were sacrificed and tissues (lymph nodes and spleen) were harvested.

C57BL/6 mice [2] = assay: CCR7-positive T-cell population in vivo, FACS; design: species or system mouse
Excerpt: as §1, §2
Murine lymphocytes: The phenotype of murine lymphocytes was analyzed by flow cytometry using anti-CD3e-FITC, anti-CD19-PB, anti-CCR7-APC, anti-CD44-FITC, anti-CD62L-APC, and anti-TCR-β-PB (Biolegend, CA, USA).
as §3

human PBMCs = assay: 5-day MLR with Et-18-OCH3, BAPTA-AM or 8-bromo-cAMP preincubation, analogues present throughout; format: cell-based; conditions: 2 μM
Procedure: To determine whether the effect of inhibition of AD2900 on PBMC proliferation is dependent on the same signal transduction pathways, we next examined the capacities of the intracellular Ca^2+ chelator-BAPTA-AM, phosphatidylinositol-specific PLC inhibitor-Et-18-OCH3, and cell-permeate exogenous cAMP-8-bromo-cAMP to alter the suppressive effect of AD2900 and FTY720 on PBMC proliferation. S1P served as a positive control (Figures 2A, 2B, and 2C, respectively). PBMCs were pre-incubated for 1 hour with the inhibitors before the addition of 2 μM AD2900, FTY720, or S1P in the MLR experiment. The inhibitors and the analogues were present in the culture throughout the allogeneic activation. AD2900 suppression of PBMC proliferation was reduced from 59% ± 3% to 32% ± 7% by the exogenous cAMP. BAPTA-AM also partially reversed AD2900 suppression of PBMC proliferation from 59% ± 3% to 32% ± 3%, yet Et-18-OCH3 had no effect (Figure 2A).
Figure 2 Effect of AD2900 on proliferation is dependent on cAMP reduction and calcium signal transduction The effect of Edelfosine (Et-18-OCH3) (Et), BAPTA-AM (BAPTA), or 8-bromo-cAMP (8-b-CAMP) on the inhibition of PBMC proliferation was tested in a 5-day MLR experiment. The cells were incubated with 1 μM Edelfosine, 0.2 μM BAPTA-AM, or 5 μM 8-bromo-cAMP for 1 hour before the addition of sphingolipid analogues, 2 μM AD2900 (AD) (A), FTY720 (FTY) (B), or S1P (C). Significances are compared to AD2900/FTY/S1P without preincubation, respectively. Graphs summarize the results of at least four independent experiments. Results of Student’s t-test: *(P < 0.05, two-tailed test), ** (P < 0.01, two-tailed test).
Human PBLs were collected from human whole blood collected from healthy donors. Subsequently, the cells were centrifuged on a Ficoll-Paque gradient (Fresenius Kabi Norge AS, Oslo, Norway) and were isolated from the interphase layer. For the human MLR experiment, PBMCs from one healthy donor were pretreated for 1 day with AD2900, AD2730, AD2750, YZ297, YZ158, FTY720, or SEW2871. After 24 h, cells were washed and plated at a concentration of 5 × 10^4 cells/well in round bottom 96-well plates containing RPMI-1640 medium Supplemented with 10% human AB serum, 1% penicillin/streptomycin, and 1% l-glutamine (Beit Haemek, Israel). PBMCs from a second donor were irradiated at 3000 γ dosage and added to the plate in a 1:1 ratio with the first donor cells. The cells were cultured for 5 days. For the thymidine incorporation assay, after 4 days of co-culture, cells were pulsed with ^3H-thymidine at 1 μCi (0.037MBq) per well (PerkinElmer, MA, USA) for 16 additional hours and then harvested onto glass-fiber filters. ^3H-thymidine incorporation was measured using Top Count. NXT (PerkinElmer, UK). In other experiments, the supernatant was harvested after 5 days of co-culture for IFN-γ and TNF-α cytokine ELISA measurements (eBioscience, CA, USA). The cells were then collected for assessing apoptosis by FACS in MACSQuant analyzer (Miltenyi Biotech, Germany). In another set of experiments, the PBMCs of two donors were mixed. Sphingolipid analogues were then added to the culture and sustained through the 5 days of the MLR experiment.

| SMILES | increase of S1P1-positive T cells in the blood, of normal expression levels (C57BL/6 mice [1]; 1.8 mg/l) | increase of S1P1 population, spleen T cells (C57BL/6 mice [1]; 1.8 mg/l) | decrease of S1P1 population in the lymph nodes (C57BL/6 mice [1]; 2.7 mg/l) | increase of S1P1-positive T cells in the blood, of normal expression levels (C57BL/6 mice [1]; 2.7 mg/l) | increase of S1P1 population, spleen T cells (C57BL/6 mice [1]; 2.7 mg/l) | decrease of S1P1 population in the lymph nodes (C57BL/6 mice [1]; 3.6 mg/l) | increase of S1P1-positive T cells in the blood, of normal expression levels (C57BL/6 mice [1]; 3.6 mg/l) | decrease of CCR7-positive T cells in the blood, of the normal expression levels (C57BL/6 mice [2]; 1.8 mg/l, 2-day treatment) | decrease of CCR7-positive T cells in the blood, of the normal expression levels (C57BL/6 mice [2]; 2.7 mg/l, 2-day treatment) | decrease of the S1P1 population, spleen T cells (Figure 7E) (C57BL/6 mice [2]; 3.6 mg/l (highest dose), 2-day treatment) | S1P1 population in the lymph nodes (Figure 7F) (C57BL/6 mice [2]; 2-day treatment) | suppression of PBMC proliferation (human PBMCs; present throughout MLR, without preincubation) | suppression of PBMC proliferation with BAPTA-AM (human PBMCs; 1 hour preincubation with 0.2 μM BAPTA-AM) | effect of Et-18-OCH3 on suppression of PBMC proliferation (human PBMCs; 1 hour preincubation with 1 μM Et-18-OCH3) | suppression of PBMC proliferation with exogenous cAMP (human PBMCs; 1 hour preincubation with 5 μM 8-bromo-cAMP) | effects on the S1P1 population in murine blood, spleen, and lymph nodes (C57BL/6 mice [1]; 1.8 mg/l, 2 days) | reduction of the CCR7 population in murine blood, spleen, and lymph nodes (C57BL/6 mice [2]; 1.8 mg/l, 2 days) | effect of Et-18-OCH3, BAPTA-AM and 8-bromo-cAMP on suppression of PBMC proliferation (human PBMCs; 1 hour preincubation with the inhibitors) |
| --- | --- | --- | --- | --- | --- | --- | --- | --- | --- | --- | --- | --- | --- | --- | --- | --- | --- | --- |
| CCCCCCCCCCCCCCCCNC(CO)(CO)CO [AD2900] | 20% ± 4% | 12% ± 5% | 12% ± 3% | 16% ± 5% | 31% ± 5% | 18% ± 11% | 18% ± 4% | 21% ± 5% | 15% ± 4% | 12% ± 4% | not affected | 59% ± 3% | 32% ± 3% | no effect | 32% ± 7% | – | – | – |
| CCCCCCCCc1ccc(CCC(N)(CO)CO)cc1 [FTY720, Fingolimod, reference compound] | – | – | – | – | – | – | – | – | – | – | – | – | – | – | – | did not demonstrate any effects | 15%–20% | not nullified by any of these interventions |

Source: publication PMC5581131, “The novel sphingosine-1-phosphate receptors antagonist AD2900 affects lymphocyte activation and inhibits T-cell entry into the lymph nodes” (Oncotarget, 2017)
